Test results published in patent publication EP4745135A1 (Gluetacs Therapeutics (Shanghai) Co., Ltd., priority 2023, dated 2025).

Key:
GSPT1 = assay: Western blot, degradation of substrate protein in hPBMCs; format: cell-based, Human
IKZF3 = biological target: T1, IKZF3 (Homo sapiens, UniProt Q96SW2+Q9UKT9); assay: as above; format: cell-based
T1 construct: effects of the compounds of the present disclosure on the expression of target proteins in cells; endogenous in cells; host or cells: human PBMCs (Milecell Biotechnologies)
T1 sequence (Q9UKT9 whole entry): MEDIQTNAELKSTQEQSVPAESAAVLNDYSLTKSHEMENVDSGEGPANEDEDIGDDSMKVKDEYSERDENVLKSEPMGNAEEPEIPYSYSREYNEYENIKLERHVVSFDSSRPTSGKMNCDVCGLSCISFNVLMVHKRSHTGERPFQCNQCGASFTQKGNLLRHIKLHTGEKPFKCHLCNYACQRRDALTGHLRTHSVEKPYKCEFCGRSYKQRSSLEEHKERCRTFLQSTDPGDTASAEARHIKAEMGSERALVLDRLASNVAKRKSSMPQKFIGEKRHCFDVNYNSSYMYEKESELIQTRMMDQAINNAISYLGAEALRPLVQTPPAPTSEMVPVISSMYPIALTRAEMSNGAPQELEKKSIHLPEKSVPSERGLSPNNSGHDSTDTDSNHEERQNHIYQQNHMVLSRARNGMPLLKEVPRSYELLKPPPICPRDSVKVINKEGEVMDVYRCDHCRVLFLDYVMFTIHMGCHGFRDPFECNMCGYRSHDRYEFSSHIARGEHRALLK
T1 sequence (Q96SW2 whole entry): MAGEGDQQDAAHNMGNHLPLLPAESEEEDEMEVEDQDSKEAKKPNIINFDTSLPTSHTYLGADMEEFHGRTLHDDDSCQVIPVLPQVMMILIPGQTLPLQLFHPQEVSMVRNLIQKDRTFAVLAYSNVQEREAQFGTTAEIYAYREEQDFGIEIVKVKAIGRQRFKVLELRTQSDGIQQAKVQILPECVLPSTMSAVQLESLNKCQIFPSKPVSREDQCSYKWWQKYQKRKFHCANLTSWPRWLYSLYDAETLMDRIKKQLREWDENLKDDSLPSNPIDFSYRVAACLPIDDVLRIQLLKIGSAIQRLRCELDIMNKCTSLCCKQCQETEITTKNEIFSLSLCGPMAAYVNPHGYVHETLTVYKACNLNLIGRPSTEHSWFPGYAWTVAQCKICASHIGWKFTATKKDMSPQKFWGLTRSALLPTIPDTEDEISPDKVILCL
T1 sequence (Q16531 whole entry partner): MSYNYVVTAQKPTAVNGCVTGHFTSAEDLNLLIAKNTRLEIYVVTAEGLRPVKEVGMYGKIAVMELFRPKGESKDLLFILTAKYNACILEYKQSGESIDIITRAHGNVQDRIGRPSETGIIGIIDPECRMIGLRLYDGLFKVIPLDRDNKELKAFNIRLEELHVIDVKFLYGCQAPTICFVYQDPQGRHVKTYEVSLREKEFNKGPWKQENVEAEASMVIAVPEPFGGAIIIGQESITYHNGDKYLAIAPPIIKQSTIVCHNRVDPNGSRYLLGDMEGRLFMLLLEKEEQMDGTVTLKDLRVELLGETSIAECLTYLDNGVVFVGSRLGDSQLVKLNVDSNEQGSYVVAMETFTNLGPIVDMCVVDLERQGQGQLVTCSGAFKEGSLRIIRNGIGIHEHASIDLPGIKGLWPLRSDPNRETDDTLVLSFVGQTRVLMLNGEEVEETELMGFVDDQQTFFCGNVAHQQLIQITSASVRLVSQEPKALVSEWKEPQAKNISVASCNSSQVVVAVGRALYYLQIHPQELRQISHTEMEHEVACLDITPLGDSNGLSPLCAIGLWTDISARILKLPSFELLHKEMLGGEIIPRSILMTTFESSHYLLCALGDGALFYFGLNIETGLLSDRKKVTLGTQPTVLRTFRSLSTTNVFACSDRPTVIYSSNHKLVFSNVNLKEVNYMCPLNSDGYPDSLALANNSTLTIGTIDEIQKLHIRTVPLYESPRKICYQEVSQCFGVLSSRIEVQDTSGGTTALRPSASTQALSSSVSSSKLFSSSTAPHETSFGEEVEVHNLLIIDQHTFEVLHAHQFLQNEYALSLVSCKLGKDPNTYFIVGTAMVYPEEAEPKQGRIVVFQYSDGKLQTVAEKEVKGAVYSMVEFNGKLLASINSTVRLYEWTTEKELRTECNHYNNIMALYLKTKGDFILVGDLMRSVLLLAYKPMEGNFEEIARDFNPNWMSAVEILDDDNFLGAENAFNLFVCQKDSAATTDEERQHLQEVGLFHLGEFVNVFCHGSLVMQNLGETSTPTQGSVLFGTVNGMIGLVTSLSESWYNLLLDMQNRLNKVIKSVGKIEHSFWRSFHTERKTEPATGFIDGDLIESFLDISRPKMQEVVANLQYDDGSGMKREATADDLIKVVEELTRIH

CK1α = biological target: T2, CK1α (Homo sapiens, UniProt P48729+Q96SW2); assay: as above; format: cell-based
T2 construct: effects of the compounds of the present disclosure on the expression of target proteins in cells; endogenous in cells; host or cells: human PBMCs (Milecell Biotechnologies)
T2 sequence (P48729 whole entry): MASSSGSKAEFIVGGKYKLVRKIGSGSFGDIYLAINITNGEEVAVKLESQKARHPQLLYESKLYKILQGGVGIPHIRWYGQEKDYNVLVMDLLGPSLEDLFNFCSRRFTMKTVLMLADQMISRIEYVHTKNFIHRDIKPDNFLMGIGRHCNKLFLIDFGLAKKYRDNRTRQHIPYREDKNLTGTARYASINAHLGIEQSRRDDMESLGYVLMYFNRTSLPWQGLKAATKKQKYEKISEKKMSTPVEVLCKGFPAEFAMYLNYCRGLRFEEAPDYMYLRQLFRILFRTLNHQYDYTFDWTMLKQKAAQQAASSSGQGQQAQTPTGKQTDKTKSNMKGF
T2 sequence (Q96SW2 whole entry): as the sequence (Q96SW2 whole entry) above
T2 sequence (Q16531 whole entry partner): as the sequence (Q16531 whole entry partner) above

IKZF2 = biological target: T3, IKZF2 (Homo sapiens, UniProt Q96SW2+Q9UKS7); assay: as above; format: cell-based
T3 construct: effects of the compounds of the present disclosure on the expression of target proteins in cells; endogenous in cells; host or cells: human PBMCs (Milecell Biotechnologies)
T3 sequence (Q9UKS7 whole entry): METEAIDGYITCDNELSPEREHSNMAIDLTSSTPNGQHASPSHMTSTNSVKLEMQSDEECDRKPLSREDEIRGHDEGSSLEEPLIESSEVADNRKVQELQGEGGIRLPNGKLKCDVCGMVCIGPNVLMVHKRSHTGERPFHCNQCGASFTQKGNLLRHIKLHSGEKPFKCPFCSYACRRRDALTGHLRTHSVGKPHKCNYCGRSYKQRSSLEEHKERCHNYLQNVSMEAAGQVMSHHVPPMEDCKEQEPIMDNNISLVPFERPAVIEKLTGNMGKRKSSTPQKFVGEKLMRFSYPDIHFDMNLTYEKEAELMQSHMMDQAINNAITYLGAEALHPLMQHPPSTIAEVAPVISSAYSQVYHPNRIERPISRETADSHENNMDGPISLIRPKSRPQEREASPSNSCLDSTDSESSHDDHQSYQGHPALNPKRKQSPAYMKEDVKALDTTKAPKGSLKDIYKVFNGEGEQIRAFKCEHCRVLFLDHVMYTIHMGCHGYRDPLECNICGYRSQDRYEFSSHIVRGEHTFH
T3 sequence (Q96SW2 whole entry): as the sequence (Q96SW2 whole entry) above
T3 sequence (Q16531 whole entry partner): as the sequence (Q16531 whole entry partner) above

IKZF1 = biological target: T4, IKZF1 (Homo sapiens, UniProt Q13422+Q96SW2); assay: as above; format: cell-based
T4 construct: effects of the compounds of the present disclosure on the expression of target proteins in cells; endogenous in cells; host or cells: human PBMCs (Milecell Biotechnologies)
T4 sequence (Q13422 whole entry): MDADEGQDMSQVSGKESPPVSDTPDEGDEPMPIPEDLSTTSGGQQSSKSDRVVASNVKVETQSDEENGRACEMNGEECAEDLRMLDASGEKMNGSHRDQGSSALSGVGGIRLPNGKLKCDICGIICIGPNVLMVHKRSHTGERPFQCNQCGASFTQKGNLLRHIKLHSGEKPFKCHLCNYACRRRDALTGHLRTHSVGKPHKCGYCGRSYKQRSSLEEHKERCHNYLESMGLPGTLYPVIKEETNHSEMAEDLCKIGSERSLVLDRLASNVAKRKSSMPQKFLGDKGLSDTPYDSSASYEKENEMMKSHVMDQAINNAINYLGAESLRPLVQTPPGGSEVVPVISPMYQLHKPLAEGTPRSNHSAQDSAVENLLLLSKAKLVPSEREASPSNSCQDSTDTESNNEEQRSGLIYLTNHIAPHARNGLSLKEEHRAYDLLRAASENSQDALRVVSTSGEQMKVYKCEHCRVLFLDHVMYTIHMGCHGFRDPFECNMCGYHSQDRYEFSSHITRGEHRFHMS
T4 sequence (Q96SW2 whole entry): as the sequence (Q96SW2 whole entry) above
T4 sequence (Q16531 whole entry partner): as the sequence (Q16531 whole entry partner) above

WEE1 = biological target: T5, WEE1 (Homo sapiens, UniProt P30291+Q96SW2); assay: as above; format: cell-based
T5 construct: effects of the compounds of the present disclosure on the expression of target proteins in cells; endogenous in cells; host or cells: human PBMCs (Milecell Biotechnologies)
T5 sequence (P30291 whole entry): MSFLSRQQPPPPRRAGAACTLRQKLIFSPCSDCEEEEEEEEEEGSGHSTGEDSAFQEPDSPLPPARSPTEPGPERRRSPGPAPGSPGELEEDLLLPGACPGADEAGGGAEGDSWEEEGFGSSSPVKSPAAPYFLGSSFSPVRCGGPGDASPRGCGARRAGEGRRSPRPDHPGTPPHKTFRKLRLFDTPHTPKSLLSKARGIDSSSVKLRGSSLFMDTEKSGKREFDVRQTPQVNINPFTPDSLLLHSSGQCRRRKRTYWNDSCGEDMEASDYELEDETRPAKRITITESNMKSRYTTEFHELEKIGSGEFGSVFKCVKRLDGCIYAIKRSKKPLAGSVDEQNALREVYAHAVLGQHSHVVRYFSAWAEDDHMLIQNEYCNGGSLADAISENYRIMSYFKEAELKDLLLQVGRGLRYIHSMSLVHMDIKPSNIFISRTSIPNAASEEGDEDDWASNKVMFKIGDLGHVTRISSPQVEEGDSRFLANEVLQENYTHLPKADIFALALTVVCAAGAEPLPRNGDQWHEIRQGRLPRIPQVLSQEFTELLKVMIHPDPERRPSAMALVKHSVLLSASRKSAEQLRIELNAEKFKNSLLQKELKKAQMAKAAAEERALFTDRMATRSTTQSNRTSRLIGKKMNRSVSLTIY
T5 sequence (Q96SW2 whole entry): as the sequence (Q96SW2 whole entry) above
T5 sequence (Q16531 whole entry partner): as the sequence (Q16531 whole entry partner) above

[1] = biological target: T6, human Cereblon WT GST-tagged protein (Homo sapiens, UniProt Q96SW2); assay: CRBN-binding affinity, HTRF (CEREBLON BINDING kit); conditions: for inhibition at 0.5 µM: read-out: Inhibition Rate at 0.5 µM (%); for inhibition at 2 µM: read-out: Inhibition Rate at 2 µM (%)
T6 construct: purchased CISBIO 64BDCRBNPEH
T6 sequence (Q96SW2 whole entry): as the sequence (Q96SW2 whole entry) above

[2] = 24 hours treatment, compounds at 50 nM and 500 nM (concentration behind the class not stated)
[3] = Western blot, 24 hours of compound treatment, compounds tested at 50 nM and 500 nM (concentration for the table not stated)

| Structure (SMILES) | inhibition at 0.5 µM [1] [%] | inhibition at 2 µM [1] [%] | GSPT1 substrate protein remaining % (GSPT1; [2]) | IKZF3 substrate protein remaining % (IKZF3; [2]) | CK1α substrate protein remaining % (CK1α; [2]) | IKZF2 substrate protein remaining % (IKZF2; [2]) | IKZF 1 substrate protein remaining % (IKZF1; [2]) | Wee1 substrate protein remaining % (WEE1; [2]) | GSPT1 substrate protein remaining % (GSPT1; [3]) | IKZF3 substrate protein remaining % (IKZF3; [3]) | CK1α substrate protein remaining % (CK1α; [3]) | IKZF2 substrate protein remaining % (IKZF2; [3]) | IKZF 1 substrate protein remaining % (IKZF1; [3]) | Wee1 substrate protein remaining % (WEE1; [3]) |
| --- | --- | --- | --- | --- | --- | --- | --- | --- | --- | --- | --- | --- | --- | --- |
| O=C1CCC(N2Cc3c(CN4CCN(c5nc(N6CCOCC6)c6sccc6n5)CC4)cccc3C2=S)C(=O)N1 (stereo not drawn) [GT-09033, 3-(4-((4-(4-morpholinothieno[3,2-d]pyrimidin-2-yl)piperazin-1-yl)methyl)-1-thioxoisoindolin-2-yl)piperidine-2,6-dione] | 60 to 80 | 80 to 100 | B (80%< substrate protein remaining %≤ 100%) | B (80%< substrate protein remaining %≤ 100%) | B (80%< substrate protein remaining %≤ 100%) | B (80%< substrate protein remaining %≤ 100%) | B (80%< substrate protein remaining %≤ 100%) | A (0% ≤ substrate protein remaining % ≤ 80%) |  |  |  |  |  |  |
| O=C1CCC(N2Cc3cc(CN4CCN(c5ccccn5)CC4)ccc3C2=S)C(=O)N1 (stereo not drawn) [GT-09216, 3-(5-((4-(pyridin-2-yl)piperazin-1-yl)methyl)-1-thioxoisoindolin-2-yl)piperidine-2,6-dione] | 60 to 80 | 80 to 100 |  |  |  |  |  |  | A (0% ≤ substrate protein remaining % ≤ 80%) | B (80%< substrate protein remaining %≤ 100%) | B (80%< substrate protein remaining %≤ 100%) | B (80%< substrate protein remaining %≤ 100%) | B (80%< substrate protein remaining %≤ 100%) | B (80%< substrate protein remaining %≤ 100%) |
| O=C1CCC(N2Cc3cc(CN4CCN(c5cc(Cl)ccn5)CC4)ccc3C2=S)C(=O)N1 (stereo not drawn) [GT-09218, 3-(5-((4-(4-chloropyridin-2-yl)piperazin-1-yl)methyl)-1-thioxoisoindolin-2-yl)piperidine-2,6-dione] | 60 to 80 | 80 to 100 |  |  |  |  |  |  | A (0% ≤ substrate protein remaining % ≤ 80%) | B (80%< substrate protein remaining %≤ 100%) | B (80%< substrate protein remaining %≤ 100%) | B (80%< substrate protein remaining %≤ 100%) | B (80%< substrate protein remaining %≤ 100%) | B (80%< substrate protein remaining %≤ 100%) |
| O=C1CCC(N2Cc3cc(CN4CCN(c5ncccc5Cl)CC4)ccc3C2=S)C(=O)N1 (stereo not drawn) [GT-09219, 3-(5-((4-(3-chloropyridin-2-yl)piperazin-1-yl)methyl)-1-thioxoisoindolin-2-yl)piperidine-2,6-dione] | 60 to 80 | 80 to 100 |  |  |  |  |  |  | A (0% ≤ substrate protein remaining % ≤ 80%) | B (80%< substrate protein remaining %≤ 100%) | B (80%< substrate protein remaining %≤ 100%) | A (0% ≤ substrate protein remaining % ≤ 80%) | B (80%< substrate protein remaining %≤ 100%) | B (80%< substrate protein remaining %≤ 100%) |
| O=C1CCC(N2Cc3cc(CN4CCN(c5cccc(F)n5)CC4)ccc3C2=S)C(=O)N1 (stereo not drawn) [GT-09221, 3-(5-((4-(6-fluoropyridin-2-yl)piperazin-1-yl)methyl)-1-thioxoisoindolin-2-yl)piperidine-2,6-dione] | 80 to 100 | 80 to 100 |  |  |  |  |  |  | B (80%< substrate protein remaining %≤ 100%) | B (80%< substrate protein remaining %≤ 100%) | B (80%< substrate protein remaining %≤ 100%) | B (80%< substrate protein remaining %≤ 100%) | A (0% ≤ substrate protein remaining % ≤ 80%) | A (0% ≤ substrate protein remaining % ≤ 80%) |
| O=C1CCC(N2Cc3cc(CN4CCN(c5ccc(F)cn5)CC4)ccc3C2=S)C(=O)N1 (stereo not drawn) [GT-09222, 3-(5-((4-(5-fluoropyridin-2-yl)piperazin-1-yl)methyl)-1-thioxoisoindolin-2-yl)piperidine-2,6-dione] | 60 to 80 | 80 to 100 |  |  |  |  |  |  | B (80%< substrate protein remaining %≤ 100%) | B (80%< substrate protein remaining %≤ 100%) | B (80%< substrate protein remaining %≤ 100%) | B (80%< substrate protein remaining %≤ 100%) | A (0% ≤ substrate protein remaining % ≤ 80%) | A (0% ≤ substrate protein remaining % ≤ 80%) |

The next lines start with results.

| inhibition at 0.5 µM [1] [%] | inhibition at 2 µM [1] [%] | Structure (SMILES) | GSPT1 substrate protein remaining % (GSPT1; [2]) | IKZF3 substrate protein remaining % (IKZF3; [2]) | CK1α substrate protein remaining % (CK1α; [2]) | IKZF2 substrate protein remaining % (IKZF2; [2]) | IKZF 1 substrate protein remaining % (IKZF1; [2]) | Wee1 substrate protein remaining % (WEE1; [2]) | GSPT1 substrate protein remaining % (GSPT1; [3]) | IKZF3 substrate protein remaining % (IKZF3; [3]) | CK1α substrate protein remaining % (CK1α; [3]) | IKZF2 substrate protein remaining % (IKZF2; [3]) | IKZF 1 substrate protein remaining % (IKZF1; [3]) | Wee1 substrate protein remaining % (WEE1; [3]) |
| --- | --- | --- | --- | --- | --- | --- | --- | --- | --- | --- | --- | --- | --- | --- |
| 60 to 80 | 80 to 100 | O=C1CCC(N2Cc3cc(CN4CCN(c5ncccc5C(F)(F)F)CC4)ccc3C2=S)C(=O)N1 (stereo not drawn) [GT-09223, 3-(1-thioxo-5-((4-(3-(trifluoromethyl)pyridin-2-yl)piperazin-1-yl)methyl)isoindolin-2-yl)piperidine-2,6-dione] |  |  |  |  |  |  | B (80%< substrate protein remaining %≤ 100%) | B (80%< substrate protein remaining %≤ 100%) | A (0% ≤ substrate protein remaining % ≤ 80%) | B (80%< substrate protein remaining %≤ 100%) | B (80%< substrate protein remaining %≤ 100%) | A (0% ≤ substrate protein remaining % ≤ 80%) |
| 60 to 80 | 80 to 100 | O=C1CCC(N2Cc3cc(CN4CCN(c5ccc(C(F)(F)F)cn5)CC4)ccc3C2=S)C(=O)N1 (stereo not drawn) [GT-09225, 3-(1-thioxo-5-((4-(5-(trifluoromethyl)pyridin-2-yl)piperazin-1-yl)methyl)isoindolin-2-yl)piperidine-2,6-dione] |  |  |  |  |  |  | A (0% ≤ substrate protein remaining % ≤ 80%) | A (0% ≤ substrate protein remaining % ≤ 80%) | A (0% ≤ substrate protein remaining % ≤ 80%) | B (80%< substrate protein remaining %≤ 100%) | B (80%< substrate protein remaining %≤ 100%) | B (80%< substrate protein remaining %≤ 100%) |
| 60 to 80 | 80 to 100 | O=C1CCC(N2Cc3cc(CN4CCN(c5nccc(I)c5F)CC4)ccc3C2=S)C(=O)N1 (stereo not drawn) [GT-09227, 3-(5-((4-(3-fluoro-4-iodopyridin-2-yl)piperazin-1-yl)methyl)-1-thioxoisoindolin-2-yl)piperidine-2,6-dione] |  |  |  |  |  |  | A (0% ≤ substrate protein remaining % ≤ 80%) | B (80%< substrate protein remaining %≤ 100%) | A (0% ≤ substrate protein remaining % ≤ 80%) | B (80%< substrate protein remaining %≤ 100%) | B (80%< substrate protein remaining %≤ 100%) | B (80%< substrate protein remaining %≤ 100%) |
| 40 to 53 | 80 to 100 | O=C1CCC(N2Cc3cc(CN4CCN(c5ncc(C(F)(F)F)cc5Cl)CC4)ccc3C2=S)C(=O)N1 (stereo not drawn) [GT-09228, 3-(5-((4-(3-chloro-5-(trifluoromethyl)pyridin-2-yl)piperazin-1-yl)methyl)-1-thioxoisoindolin-2-yl)piperidine-2,6-dione] |  |  |  |  |  |  | B (80%< substrate protein remaining %≤ 100%) | B (80%< substrate protein remaining %≤ 100%) | A (0% ≤ substrate protein remaining % ≤ 80%) | B (80%< substrate protein remaining %≤ 100%) | B (80%< substrate protein remaining %≤ 100%) | B (80%< substrate protein remaining %≤ 100%) |
| 60 to 80 | 80 to 100 | O=C1CCC(N2Cc3cc(CN4CCN(c5ccc(Cl)nc5)CC4)ccc3C2=S)C(=O)N1 (stereo not drawn) [GT-09230, 3-(5-((4-(6-chloropyridin-3-yl)piperazin-1-yl)methyl)-1-thioxoisoindolin-2-yl)piperidine-2,6-dione] |  |  |  |  |  |  | A (0% ≤ substrate protein remaining % ≤ 80%) | B (80%< substrate protein remaining %≤ 100%) | A (0% ≤ substrate protein remaining % ≤ 80%) | B (80%< substrate protein remaining %≤ 100%) | B (80%< substrate protein remaining %≤ 100%) | B (80%< substrate protein remaining %≤ 100%) |
| 60 to 80 | 80 to 100 | O=C1CCC(N2Cc3cc(CN4CCN(c5c(Cl)ccnc5Cl)CC4)ccc3C2=S)C(=O)N1 (stereo not drawn) [GT-09232, 3-(5-((4-(2,4-dichloropyridin-3-yl)piperazin-1-yl)methyl)-1-thioxoisoindolin-2-yl)piperidine-2,6-dione] |  |  |  |  |  |  | A (0% ≤ substrate protein remaining % ≤ 80%) | A (0% ≤ substrate protein remaining % ≤ 80%) | A (0% ≤ substrate protein remaining % ≤ 80%) | A (0% ≤ substrate protein remaining % ≤ 80%) | A (0% ≤ substrate protein remaining % ≤ 80%) | A (0% ≤ substrate protein remaining % ≤ 80%) |
